In PubChem BioAssay AID2060613 (Molecular Pharmacology Branch, DTP, NCI, 2025):
Several values for one entry are separate records, joined by “and”; a condition that tells them apart may be missing. Equal entries are not always repeated.

Test system: 233499-124-R-J3-PDC complex spheroid viability
Assay: Anticancer human tumor 233499-124-R-J3-PDC patient-derived colon adenocarcinoma cell line growth inhibition [CLK]
Settings: for viability, T/C: stronger effect = lower value
Description: A high-throughput screen of multi-cell type tumor spheroids was designed to identify active combinations of […] and targeted small molecules. Complex spheroids include a stromal component modeled by human endothelial cells (HUVEC) and fibroblasts modeled by human mesenchymal stem cells (MSCs). The concentration ranges selected for each drug and investigational agent were based upon clinically achievable concentrations if the clinical Cmax of the agent was known.
Compounds. The drugs and investigational agents: cirtuvivint (SM08502; NSC835563), CC-671 (NSC850746), vemurafenib (NSC761431), tapotoclax (NSC804041), sotorasib (NSC818433), adagrasib (NSC831453), MRTX-1133 (NSC836407), BAY2416964 (NSC825713), copanlisib (NSC816437), inavolisib (NSC800729), abemaciclib (NSC768073), osimertinib (NSC779217), entinostat (NSC756642), eltanexor (KPT-8602, NSC794443), venetoclax (NSC766270), ceralasertib (NSC777638), bortezomib (NSC756655), olaparib (NSC753686), talazoparib (NSC767125), alisertib (NSC759677), peposertib (NSC802822), gemcitabine (NSC613327), 5-fluorouracil (NSC19893), SN-38 (NSC673596), oxaliplatin (NSC266046), paclitaxel (NSC125973), and doxorubicin (NSC123127), were obtained from the National Cancer Institute (NCI) Developmental Therapeutics Program Chemical Repository. The FDA-approved anticancer drug set is available from the Developmental Therapeutics Program at https://dtp.cancer.gov/organization/dscb/obtaining/available plates.htm. […] The stock solutions were prepared in dimethyl sulfoxide (DMSO, Sigma-Aldrich, St. Louis, MO, cat. D2650), except for the platinum complexes which were prepared in saline (Quality Biological, Gaithersburg, MD, cat. 114-055-101), at 800-fold the tested concentration and stored at -70 degrees C prior to their use. All drugs and investigational agents were tested over a range starting from a high concentration at or near the clinical Cmax and decreasing in half-log increments. If the clinical Cmax for an agent had not been determined, the highest concentration tested was 10 microM.
Cell Culture. All cells were maintained in an incubator at 37 degrees C and 5% CO2 with 95% humidity. The PDC lines were cultured according to standard operating procedures established by the NCI PDMR. Briefly, all PDCs were thawed and cultured in Matrigel-coated flasks prepared with a working solution of 1X Ham's F-12 nutrient mix, without supplementation (Invitrogen, Waltham, MA, cat. 11765054), 100 U/mL penicillin-streptomycin (Invitrogen, cat. 15140122), and 2.5% Matrigel (Corning Inc., Corning, NY, cat. 354248) for the first three passages. The 947758-054-R-J2-PDC line was cultured in 6B/Colon 1A media, which includes advanced DMEM/F-12 (Thermo Fisher Scientific, cat. 12634028), 10 mM HEPES (Thermo Fisher Scientific, cat. 15630080), 1X GlutaMAX supplement (Thermo Fisher Scientific, cat. 35050061), 0.1 mg/mL primocin (InvivoGen, cat. ant-pm-2), 10% defined fetal bovine serum, heat inactivated (HyClone Laboratories Inc., cat. SH30070.03HI), 1.25 mM N-Acetyl-L-cysteine (Sigma-Aldrich, cat. A9165), 10 mM nicotinamide (Sigma-Aldrich, cat. N0636), 1X B-27 supplement (Thermo Fisher Scientific, cat. 17504044), 1X N-2 supplement (Thermo Fisher Scientific, cat. 17502048), and 10 microM Y-27632 dihydrochloride (Tocris Bioscience, cat. 1254). The 876862-298-R-J1-PDC was cultured in 6E media, which includes all 6B/Colon 1A media components plus 50% L-WRN conditioned media (ATCC, cat. CRL-3276), 50 ng/mL recombinant human EGF recombinant protein (hEGF; Thermo Fisher Scientific, cat. PHG0311), 10 ng/mL recombinant human fibroblast growth factor 10 (hGFG-10; PeproTech, cat. 100-26), 1 ng/mL recombinant human fibroblast growth factor 2 (hFGF-2; PeproTech, cat. 100-18B), and 1 µM prostaglandin E2 (PGE2; Tocris, cat. 2296). The 227483-062-R1-J1-PDC line was cultured in Panc media, containing all 6E components except hFGF-2, with the addition of 500 nM SB-431542 (Selleckchem, cat. S1067) and 10 nM gastrin (Tocris, cat. 3006). […]

[1] = curve of first compound, second compound 0.0316 µM
[2] = curve of first compound, second compound 0.1 µM
[3] = curve of first compound, second compound 0.316 µM
[4] = curve of first compound, second compound 1 µM
[5] = curve of first compound, second compound 3.16 µM
[6] = curve of first compound, second compound 10 µM
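Also: spheroids exposed to the drug combinations for seven days.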
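For viability, T/C in this document: percent viability relative to DMSO vehicle control wells taken as 100%.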

With `C#Cc1c(F)ccc2cc(O)cc(-c3ncc4c(N5CC6CCC(C5)N6)nc(OCC56CCCN5CC(F)C6)nc4c3F)c12` (stereo unspecified) + CN1CCN(c2cc(C(=O)Nc3cc4cc(-c5cnn(C)c5)ccc4cn3)ccn2)CC1 the IC50 [1] was > 10000 nM, the IC50 [2] was > 10000 nM and the IC50 [3] was > 10000 nM. For the same compound, the IC50 [4] was < 31.6 nM, the IC50 [5] was < 31.6 nM and the IC50 [6] was < 31.6 nM. For the same compound, the viability, T/C (second compound 0.0316 µM, first compound 0.0316 µM) was 80.6%, the viability, T/C (second compound 0.0316 µM, first compound 0.1 µM) was 96.9% and the viability, T/C (second compound 0.0316 µM, first compound 0.316 µM) was 92.9%. For the same compound, the viability, T/C (second compound 0.0316 µM, first compound 1 µM) was 91.9%, the viability, T/C (second compound 0.0316 µM, first compound 3.16 µM) was 98.1% and the viability, T/C (second compound 0.0316 µM, first compound 10 µM) was 76.8%. It also gave a viability, T/C (second compound 0.1 µM, first compound 0.0316 µM) of 87.4%, a viability, T/C (second compound 0.1 µM, first compound 0.1 µM) of 99.8% and a viability, T/C (second compound 0.1 µM, first compound 0.316 µM) of 109%. The viability, T/C (second compound 0.1 µM, first compound 1 µM) was 94.1%, the viability, T/C (second compound 0.1 µM, first compound 3.16 µM) was 85.7% and the viability, T/C (second compound 0.1 µM, first compound 10 µM) was 71.4%. For the same compound, the viability, T/C (second compound 0.316 µM, first compound 0.0316 µM) was 90.7%, the viability, T/C (second compound 0.316 µM, first compound 0.1 µM) was 92% and the viability, T/C (second compound 0.316 µM, first compound 0.316 µM) was 102%. The viability, T/C (second compound 0.316 µM, first compound 1 µM) was 98.5%, the viability, T/C (second compound 0.316 µM, first compound 3.16 µM) was 81.9% and the viability, T/C (second compound 0.316 µM, first compound 10 µM) was 66.4%. For the same compound, the viability, T/C (second compound 1 µM, first compound 0.0316 µM) was 3.8%, the viability, T/C (second compound 1 µM, first compound 0.1 µM) was 4.61% and the viability, T/C (second compound 1 µM, first compound 0.316 µM) was 1.85%. It also gave a viability, T/C (second compound 1 µM, first compound 1 µM) of 9.57%, a viability, T/C (second compound 1 µM, first compound 3.16 µM) of 2.33% and a viability, T/C (second compound 1 µM, first compound 10 µM) of 1.27%. The viability, T/C (second compound 3.16 µM, first compound 0.0316 µM) was 0.59%, the viability, T/C (second compound 3.16 µM, first compound 0.1 µM) was 0.56% and the viability, T/C (second compound 3.16 µM, first compound 0.316 µM) was 0.97%. For the same compound, the viability, T/C (second compound 3.16 µM, first compound 1 µM) was 0.63%, the viability, T/C (second compound 3.16 µM, first compound 3.16 µM) was 1.43% and the viability, T/C (second compound 3.16 µM, first compound 10 µM) was 0.5%. The viability, T/C (second compound 10 µM, first compound 0.0316 µM) was 0.45%, the viability, T/C (second compound 10 µM, first compound 0.1 µM) was 0.45% and the viability, T/C (second compound 10 µM, first compound 0.316 µM) was 0.43%. It also gave a viability, T/C (second compound 10 µM, first compound 1 µM) of 0.39%, a viability, T/C (second compound 10 µM, first compound 3.16 µM) of 0.39% and a viability, T/C (second compound 10 µM, first compound 10 µM) of 0.8%.

With `O=C(c1cc(Cc2n[nH]c(=O)c3ccccc23)ccc1F)N1CCN(C(=O)C2CC2)CC1` the viability, T/C (compound 0.0316 µM) was 89.8% and 102%, the viability, T/C (compound 0.1 µM) was 91.5% and 89.6% and the viability, T/C (compound 0.316 µM) was 104%. The viability, T/C (compound 1 µM) was 105% and 92.8%, the viability, T/C (compound 3.16 µM) was 107% and the viability, T/C (compound 10 µM) was 86% and 115%. For the same compound, the IC50 (curve of compound) was > 10000 nM.

`CC(C)CC(NC(=O)C(Cc1ccccc1)NC(=O)c1cnccn1)B(O)O` (stereo unspecified) + CN1CCN(c2cc(C(=O)Nc3cc4cc(-c5cnn(C)c5)ccc4cn3)ccn2)CC1 gave an IC50 [1] of 5.53 nM, an IC50 [2] of 5.01 nM and an IC50 [3] of 5.27 nM. The IC50 [4] was < 0.949 nM, the IC50 [5] was < 0.949 nM and the IC50 [6] was < 0.949 nM. For the same compound, the viability, T/C (second compound 0.0316 µM, first compound 0.000949 µM) was 97.8%, the viability, T/C (second compound 0.0316 µM, first compound 0.003 µM) was 113% and the viability, T/C (second compound 0.0316 µM, first compound 0.00949 µM) was 0.79%. For the same compound, the viability, T/C (second compound 0.0316 µM, first compound 0.03 µM) was 0.19%, the viability, T/C (second compound 0.0316 µM, first compound 0.0949 µM) was 0.17% and the viability, T/C (second compound 0.0316 µM, first compound 0.3 µM) was 0.17%. It also gave a viability, T/C (second compound 0.1 µM, first compound 0.000949 µM) of 86.1%, a viability, T/C (second compound 0.1 µM, first compound 0.003 µM) of 93.5% and a viability, T/C (second compound 0.1 µM, first compound 0.00949 µM) of 0.23%. It also gave a viability, T/C (second compound 0.1 µM, first compound 0.03 µM) of 0.2%, a viability, T/C (second compound 0.1 µM, first compound 0.0949 µM) of 0.18% and a viability, T/C (second compound 0.1 µM, first compound 0.3 µM) of 0.17%. The viability, T/C (second compound 0.316 µM, first compound 0.000949 µM) was 96.5%, the viability, T/C (second compound 0.316 µM, first compound 0.003 µM) was 99% and the viability, T/C (second compound 0.316 µM, first compound 0.00949 µM) was 0.2%. For the same compound, the viability, T/C (second compound 0.316 µM, first compound 0.03 µM) was 0.17%, the viability, T/C (second compound 0.316 µM, first compound 0.0949 µM) was 0.18% and the viability, T/C (second compound 0.316 µM, first compound 0.3 µM) was 0.17%. It also gave a viability, T/C (second compound 1 µM, first compound 0.000949 µM) of 1.6%, a viability, T/C (second compound 1 µM, first compound 0.003 µM) of 0.82% and a viability, T/C (second compound 1 µM, first compound 0.00949 µM) of 0.17%. The viability, T/C (second compound 1 µM, first compound 0.03 µM) was 0.15%, the viability, T/C (second compound 1 µM, first compound 0.0949 µM) was 0.54% and the viability, T/C (second compound 1 µM, first compound 0.3 µM) was 0.13%. For the same compound, the viability, T/C (second compound 3.16 µM, first compound 0.000949 µM) was 0.76%, the viability, T/C (second compound 3.16 µM, first compound 0.003 µM) was 0.84% and the viability, T/C (second compound 3.16 µM, first compound 0.00949 µM) was 0.17%. For the same compound, the viability, T/C (second compound 3.16 µM, first compound 0.03 µM) was 0.18%, the viability, T/C (second compound 3.16 µM, first compound 0.0949 µM) was 0.19% and the viability, T/C (second compound 3.16 µM, first compound 0.3 µM) was 0.33%. The viability, T/C (second compound 10 µM, first compound 0.000949 µM) was 0.45%, the viability, T/C (second compound 10 µM, first compound 0.003 µM) was 0.34% and the viability, T/C (second compound 10 µM, first compound 0.00949 µM) was 0.24%. For the same compound, the viability, T/C (second compound 10 µM, first compound 0.03 µM) was 0.24%, the viability, T/C (second compound 10 µM, first compound 0.0949 µM) was 0.22% and the viability, T/C (second compound 10 µM, first compound 0.3 µM) was 0.19%.
